Results taken from patent US20050003367A1, “Methods and compositions for rapid development of screening assays” (priority 2002, published 2005).
“Also recorded” adds a separate entry of the source. Each block holds one molecule with its values, some of them ahead of it.

Legend:
[1] = cited from earlier work
[2] = molecular target: T1, Vanilloid Receptor-1 (VR1) (Homo sapiens, UniProt Q8NER1); assay: VR1 calcium response assay in HEK-293 clones (VIPRII, 96-well); type: cell-based; conditions: for IC50: responses to 10 μM capsaicin, capsazepine 0.01-100 μM
T1 construct: endogenous in cells; host or cells: HEK-293 clones 5B11 and 5B5
T1 sequence (Q8NER1 whole entry): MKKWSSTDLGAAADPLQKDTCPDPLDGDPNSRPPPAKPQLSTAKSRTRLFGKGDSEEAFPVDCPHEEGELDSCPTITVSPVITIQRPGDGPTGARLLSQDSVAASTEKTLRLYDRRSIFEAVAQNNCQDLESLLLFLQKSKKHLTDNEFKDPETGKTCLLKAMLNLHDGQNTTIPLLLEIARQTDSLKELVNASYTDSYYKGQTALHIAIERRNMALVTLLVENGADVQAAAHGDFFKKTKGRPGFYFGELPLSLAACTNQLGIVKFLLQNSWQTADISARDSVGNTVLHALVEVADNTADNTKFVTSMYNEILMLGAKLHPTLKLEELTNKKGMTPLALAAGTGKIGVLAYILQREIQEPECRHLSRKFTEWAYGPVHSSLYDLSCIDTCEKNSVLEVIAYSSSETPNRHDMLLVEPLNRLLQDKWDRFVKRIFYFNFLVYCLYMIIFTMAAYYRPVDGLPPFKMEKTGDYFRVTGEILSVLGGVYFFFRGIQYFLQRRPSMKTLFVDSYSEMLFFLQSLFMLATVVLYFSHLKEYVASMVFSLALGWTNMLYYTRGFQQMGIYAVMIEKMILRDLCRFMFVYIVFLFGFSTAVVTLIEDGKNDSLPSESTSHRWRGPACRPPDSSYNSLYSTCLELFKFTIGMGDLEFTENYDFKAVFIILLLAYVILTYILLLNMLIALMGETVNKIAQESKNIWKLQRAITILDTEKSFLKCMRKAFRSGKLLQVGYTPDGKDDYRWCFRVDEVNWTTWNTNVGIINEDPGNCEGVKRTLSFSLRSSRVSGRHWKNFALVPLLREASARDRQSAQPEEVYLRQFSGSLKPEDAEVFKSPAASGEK

[3] = molecular target: T2, PPARγ (Homo sapiens, UniProt P37231); assay: PPARγ Gal4-DBD UAS β-lactamase reporter assay, HEK293 clone 4G5; type: cell-based; conditions: 10 μM or 32 μM BADGE 1 h at 37° C. before rosiglitazone 1 nM-10 μM
T2 construct: expressed in transfected cells; host or cells: HEK293 7xUAS-β-lactamase line (HEKUASBLA), clone 4G5; The targeting vector was integrated by homologous recombination
T2 sequence (P37231 238-503 limits assumed): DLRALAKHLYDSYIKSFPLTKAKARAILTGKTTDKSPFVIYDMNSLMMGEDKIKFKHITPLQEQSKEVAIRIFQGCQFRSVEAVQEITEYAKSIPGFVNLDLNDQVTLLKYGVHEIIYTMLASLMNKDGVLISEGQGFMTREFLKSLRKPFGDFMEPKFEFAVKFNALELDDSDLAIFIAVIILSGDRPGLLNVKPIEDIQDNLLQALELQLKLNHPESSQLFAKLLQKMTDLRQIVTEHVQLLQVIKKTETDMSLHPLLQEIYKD
Experimental: (§1) Unless otherwise noted, β-lactamase reporter expression was determined by plating cells into 96 well plates at approx. 10^5 cells/well, and loading with 1 μM CCF2-AM in Hanks' balanced salt solution (HBSS) containing phenol red at 22 ° C. for a period between 1 and 2 h. For visual determination, an epifluorescence microscope (Zeiss 25CFL) equipped with a 10× Fluor objective was used. The filter set contained a 405/20 exciter, a 420 dichroic mirror, and a 435 long-pass filter (Chroma Technologies, Brattleboro Vt.). Fluorescence was then quantified on a Cytofluor 4000 fluorescence plate reader using 395/12.5 nm excitation and emission was detected via 460/50 (blue) and 535/40 (green) band pass filters. Emission intensities from blank wells containing no cells were subtracted from wells containing cells. Calibration of β-lactamase enzyme levels were determined in cell lysates as described by Zlokarnik et al.(1998) Science 279 84-88. Replicate samples of cells were lysed by three cycles of freeze thawing in PBS. β-Lactamase activity in the lysate was measured from the rate of hydrolysis of 1 nmol of CCF2 in 100 μl in a Cytofluor fluorimeter. […]
Single cells were sorted into 96 well plates and expanded. […] At least 16 h before the assay, cell clones on one copy of the assay plates were stimulated as described above. β-lactamase activity was detected in individual clones as described in Example 6. […]

[4] = molecular target: T3, MC4R (Homo sapiens, UniProt P32245); assay: MC4R CRE β-lactamase reporter assay in HEK 293 (P3D8) MC4 cell lines; type: cell-based; conditions: cells pretreated with the MC4 antagonist
T3 construct: endogenous in cells; host or cells: HEK 293 P3D8 (4XCRE-β-lactamase reporter) clones, e.g. MC4.49
T3 sequence (P32245 whole entry): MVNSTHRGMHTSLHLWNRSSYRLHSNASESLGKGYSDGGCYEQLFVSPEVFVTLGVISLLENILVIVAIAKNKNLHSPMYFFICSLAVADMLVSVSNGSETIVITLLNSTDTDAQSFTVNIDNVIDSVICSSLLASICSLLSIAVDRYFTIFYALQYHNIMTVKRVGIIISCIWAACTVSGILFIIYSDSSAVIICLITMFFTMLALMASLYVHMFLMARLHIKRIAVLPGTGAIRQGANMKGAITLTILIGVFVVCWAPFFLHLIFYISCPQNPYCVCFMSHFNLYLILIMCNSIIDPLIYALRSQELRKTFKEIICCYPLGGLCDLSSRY
Experimental: as §1
Three out of the eight characterized MC4 cell lines were chosen for further pharmacological characterization that included a dose response curve with NDP-α-MSH. […] The calculated values were consistent with published data. […]

[5] = molecular target: T4, Mineralocorticoid receptor (MR) (Homo sapiens, UniProt P08235); assay: MR Gal4-DBD UAS β-lactamase reporter assay, HEK/UAS/GAL4-MR clone 1B4; type: cell-based
T4 construct: expressed in transfected cells; host or cells: HEK293 7xUAS-β-lactamase line (HEKUASBLA), clone 1B4. pKI-Gal4-DBD-MR was integrated by homologous recombination
T4 sequence (P08235 726-964 limits assumed): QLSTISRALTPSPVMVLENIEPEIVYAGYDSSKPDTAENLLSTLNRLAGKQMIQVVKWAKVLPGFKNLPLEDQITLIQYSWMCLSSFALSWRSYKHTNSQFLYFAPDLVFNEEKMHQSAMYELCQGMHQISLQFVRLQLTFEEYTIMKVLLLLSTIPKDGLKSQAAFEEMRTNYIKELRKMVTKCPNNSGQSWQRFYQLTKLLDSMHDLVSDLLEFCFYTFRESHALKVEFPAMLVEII

Molecule: SNARF-4F carboxylic acid
- pKa [1]: ~6.4

Molecule: C=C(C)[C@]12C[C@@H](C)[C@@]34O[C@](Cc5ccccc5)(O[C@@H]1[C@@H]3C=C(COC(=O)Cc1ccc(O)c(OC)c1)C[C@]1(O)C(=O)C(C)=C[C@@H]41)O2 [resiniferatoxin]
- EC50 [2]: 0.427 µM

Molecule: CC(C)(c1ccc(OCC2CO2)cc1)c1ccc(OCC2CO2)cc1 (centres unmarked) [BADGE]
- inhibition of cell response to rosiglitazone [3]: Inhibition of the cell response to the stimuli

- IC50 ([2]; clone 5B5): 7.1 µM
- IC50 ([2]; clone 5B11): 12.8 µM
Molecule: Oc1cc2c(cc1O)CN(C(=S)NCCc1ccc(Cl)cc1)CCC2 [capsazepine]
- effect on VR1 responses to capsaicin ([2]; 50 μM capsazepine, clones 5B11 and 5B5): failed to respond to any concentration of capsaicin; also recorded: inhibited

Molecule: HS024
- inhibition of the response to α-MSH or NDP-α-MSH [4]: inhibited in a concentration-dependant manner

- EC50 [5]: 0.004 µM
Molecule: C[C@]12CCC(=O)C=C1CC[C@@H]1[C@@H]2[C@@H](O)C[C@@]2(C)[C@H]1CC[C@]2(O)C(=O)CO [Cortisol]
